This is an account of results in US20240398788A1, “METHODS OF TREATING CANCER USING HSF1 PATHWAY INHIBITORS” (Institute of Cancer Research, priority 2021, published 2024).

The test system of experiment [1] is OVISE ovarian cancer xenograft (ARID1A mutation). As to the kind of experiment: OVISE ovarian cancer xenograft efficacy study. In kind it is in vivo, NCr nude mice. The conditions noted are these: 35 mg/kg oral once daily, 5/7 days, 38/52 doses/study days. An excerpt:
(§1) The in vivo efficacy of Compound A was investigated in xenograft tumours in athymic nude mice with a focus on ovarian cancers. […] Of the seven cell lines, SK-OV-3; TOV-21G, OVISE, and IGROV1 were identified as harboring an ARID1A mutation, while OVCAR-5, ES-2, and RMG1 were ARID1A wildtype.
(§2) Once the tumours were established, mice were randomised into vehicle control and treatment groups. Mice in both the vehicle control and treatment groups that were removed during the course of the study due to spontaneous or treatment derived tumour regression, tumour growth approaching license limits, tumour ulceration or loss of condition were excluded from the final analysis of the mean tumour volume and standard error of the mean and up to the point they were removed from the study. The number of mice undergoing complete tumour regression in the treatment group is noted where applicable.
(§3) Two groups of 12 female NCr nude mice (3 groups of 10 for SK-OV-3) were injected with 3-5×10^6 cells of one of the above cancer cell lines, subcutaneously. […] Body weights were taken daily and animals were monitored for signs of toxicity. To evaluate drug levels the animals were euthanised in batches of 3 to 4 at 2, 6 and 24 hours after the last dose and terminal plasma and tumour samples collected for PK analysis.

Experiment [2] relates to IGROV1 ovarian cancer xenograft (ARID1A mutation). As to the kind of experiment: IGROV1 ovarian cancer xenograft efficacy study. Type of experiment: in vivo, NCr nude mice. The settings on record: 35 mg/kg oral once daily, intermittent, 11/15 doses/study days.
From the text: as §1, §2, §3

Experiment [3] deals with RMG1 ovarian cancer xenograft (ARID1A wildtype).
From the text: as §2, §3

Experiment [4] relates to OVCAR-5 ovarian cancer xenograft (ARID1A wildtype).
From the text: as §2, §3

For experiment [5], the system named is ES-2 ovarian cancer xenograft (ARID1A wildtype).
From the text: as §2, §3

In experiment [6] the test system is SK-OV-3 ovarian cancer xenograft (ARID1A mutation). As to the kind of experiment: SK-OV-3 ovarian cancer xenograft efficacy study. In kind it is in vivo, athymic nude mice. How it is done:
The tumor was identified as harboring an ARID1A mutation. […] Control and 35 mg/kg group n=10. Horizontal black line is 35 mg/kg group tumour volume on Day 0.
as §1, §2
(§4) Two groups of 12 female NCr nude mice (3 groups of 10 for SK-OV-3) were injected with 3-5×10^6 cells of one of the above cancer cell lines, subcutaneously. […] Body weights were taken daily and animals were monitored for signs of toxicity. […]

Experiment [7] relates to TOV-21G ovarian cancer xenograft (ARID1A mutation). As to the kind of experiment: TOV-21G ovarian cancer xenograft efficacy study. In kind it is in vivo, NCr nude mice. The settings on record: TOV-21G xenograft, 35 mg/kg oral once daily, 5/7 days, 21/19 doses/study days. How it is done:
The tumor was identified as harboring an ARID1A mutation. […] Vehicle control group n=8 and 35 mg/kg dose group n=11.
as §1, §2, §4

Turning to `CCN1CCN(Cc2ccc3cc(C(=O)Nc4cc(NC(=O)c5ccc6c(c5)OCCO6)ccc4F)ccc3n2)CC1` [Compound A, N-(5-(2,3-Dihydrobenzo[b][1,4]dioxine-6-carboxamido)-2-fluorophenyl)-2-((4-ethylpiperazin-1-yl)methyl)quinoline-6-carboxamide], the “TGI (%)” value in experiment [1] was 70%; in experiment [2], 56%; in experiment [3] (RMG1 xenograft, 35 mg/kg oral once daily, 5/7 days, 15/19 doses/study days) it was −3.0%; in experiment [4] (OVCAR-5 xenograft, 35 mg/kg oral once daily, 5/7 days, 21/27 doses/study days), 27%; in experiment [5] (ES-2 xenograft, 35 mg/kg oral once daily, 5/7 days, 12/17 doses/study days), 12%; in experiment [6] (SK-OV-3 xenograft, 35 mg/kg oral once daily, continuous, 20/20 doses/study days), 120%. Besides, the “TGI (%)” value in experiment [7] amounted to 81%. Also, in experiment [3] (RMG1 ARID1A wildtype model), the “inhibition of xenograft tumour growth (in words)” value is reported as “No inhibition of xenograft tumour growth”. In addition, the “efficacy in xenograft model (in words)” value in experiment [4] (OVCAR-5 ARID1A wild type model, criterion TGI>50%) is “did not meet the criteria for efficacy”; in experiment [5] (ES-2 ARID1A wild type model, criterion TGI>50%) it was “did not meet the criteria for efficacy”. In experiment [6] (SK-OV-3, ARID1A mutated, compared with the other six xenografts), the “sensitivity in xenograft models (in words)” value is given as “most sensitive cell line in xenograft models”.
